## OCC1(O)OC[C@@H](O)[C@H](O)[C@@H]1O (stereo not given in full)
In ethanol, 283.15 K
  solubility (mole fraction): 0.00138
In ethanol, 288.15 K
  solubility (mole fraction): 0.00168
In ethanol, 293.15 K
  solubility (mole fraction): 0.00193
In ethanol, 298.15 K
  solubility (mole fraction): 0.00219
In ethanol, 303.15 K
  solubility (mole fraction): 0.00245
In ethanol, 308.15 K
  solubility (mole fraction): 0.00288
In ethanol, 313.15 K
  solubility (mole fraction): 0.00328
In ethanol, 318.15 K
  solubility (mole fraction): 0.00395
In ethanol, 323.15 K
  solubility (mole fraction): 0.00468
In isopropanol, 283.15 K
  solubility (mole fraction): 0.00038
In isopropanol, 288.15 K
  solubility (mole fraction): 0.00041
In isopropanol, 293.15 K
  solubility (mole fraction): 0.0006
In isopropanol, 298.15 K
  solubility (mole fraction): 0.00088
In isopropanol, 303.15 K
  solubility (mole fraction): 0.00121
In isopropanol, 308.15 K
  solubility (mole fraction): 0.0015
In isopropanol, 313.15 K
  solubility (mole fraction): 0.00171
In isopropanol, 318.15 K
  solubility (mole fraction): 0.00211
In isopropanol, 323.15 K
  solubility (mole fraction): 0.00261
In methanol, 283.15 K
  solubility (mole fraction): 0.00414
In methanol, 288.15 K
  solubility (mole fraction): 0.00553
In methanol, 293.15 K
  solubility (mole fraction): 0.00609
In methanol, 298.15 K
  solubility (mole fraction): 0.00758
In methanol, 303.15 K
  solubility (mole fraction): 0.00892
In methanol, 308.15 K
  solubility (mole fraction): 0.0101
In methanol, 313.15 K
  solubility (mole fraction): 0.0121
In methanol, 318.15 K
  solubility (mole fraction): 0.0155
In methanol, 323.15 K
  solubility (mole fraction): 0.0166
In n-propanol, 283.15 K
  solubility (mole fraction): 0.00038
In n-propanol, 288.15 K
  solubility (mole fraction): 0.00043
In n-propanol, 293.15 K
  solubility (mole fraction): 0.00062
In n-propanol, 298.15 K
  solubility (mole fraction): 0.00088
In n-propanol, 303.15 K
  solubility (mole fraction): 0.00127
In n-propanol, 308.15 K
  solubility (mole fraction): 0.00164
In n-propanol, 313.15 K
  solubility (mole fraction): 0.002
In n-propanol, 318.15 K
  solubility (mole fraction): 0.00238
In n-propanol, 323.15 K
  solubility (mole fraction): 0.00272
In water, 283.15 K
  solubility (mole fraction): 0.0976
In water, 288.15 K
  solubility (mole fraction): 0.106
In water, 293.15 K
  solubility (mole fraction): 0.116
In water, 298.15 K
  solubility (mole fraction): 0.124
In water, 303.15 K
  solubility (mole fraction): 0.135
In water, 308.15 K
  solubility (mole fraction): 0.146
In water, 313.15 K
  solubility (mole fraction): 0.155
In water, 318.15 K
  solubility (mole fraction): 0.166
In water, 323.15 K
  solubility (mole fraction): 0.175

— BigSolDB 2.1
